The values below come from paper PMC8619920, “New Polyesterified Ursane Derivatives from Leaves of Maesa membranacea and Their Cytotoxic Activity” (Molecules, 2021).

Holding throughout (type): cell-based
Experiment [1] has as its system A375 human malignant melanoma cells. In words: Cytotoxicity, LDH assay, A375 cells. The conditions noted are these: Homo sapiens, A-375; 24 h treatment, 5–100 μg/mL. The procedure:
(§1) Cytotoxic activity was tested on human cancer and normal cells, grouped in three panels, namely: prostate, skin and gastrointestinal. The prostate panel consisted of prostate cancer cell lines Du145 (ATCC HTB-81) and PC3 (ATCC CRL-1435), and prostate epithelial cells PNT-2 (ECACC 95012613). Melanoma cell lines A375 (ATCC CRL-1619) and HTB140 (ATCC Hs 294T) together with skin keratinocytes HaCaT (obtained as a kind gift of prof. Marta Michalik, Department of Cell Biology, Jagiellonian University, Kraków, Poland) were included into the skin panel. The gastrointestinal panel of cells comprised colon cancer cell lines Caco-2 (ATCC HTB-37) and HT29 (ATCC HTB-38). Du145 cells were grown in Modified Eagle’s Medium with low (1.0 g/L) glucose concentration, HT29, PC3 and PNT-2 cells in Dulbecco’s Modified Eagle’s Media: F12 HAM Nutrient Mixture, Caco-2 in Modified Eagle’s Medium with NEAA (no-essential amino acids) while melanoma cells and keratinocytes were maintained in Modified Eagle’s Medium with high (4.5 g/L) glucose concentration. The culture media (all supplied by Sigma-Aldrich Co.; St. Louis, MO, USA) contained antibiotics and 10% fetal bovine serum (FBS). All cultures were maintained at 37 °C, in a humidified, 5% CO2 containing, atmosphere.
(§2) The examined triterpenes were diluted in the culture media from freshly made stock solutions in MeOH (10 mg/mL) to the working concentrations (from 0 to 100 μg/mL).
(§3) Cell viability was determined as it was described previously. Cells suspended in the nutrient medium were transferred into 96-well microtiter plates (density 1.5 × 10^4 per well), and preincubated for 24 h (37 °C, 5% CO2). Then, the culture medium was replaced with the medium containing different concentrations of 1 or 2 (1–100 μg/mL). After 24 h of incubation, viability of the cells was determined using colorimetric lactate dehydrogenase (LDH) assay, in comparison to the controls to which corresponding aliquots of MeOH diluted with culture media were added. Cells grown in the medium without the tested compounds were used as control I (negative) and the positive control (control II) was obtained by incubation of the cells in the medium containing 1% Triton X-100. LDH released from the damaged cells into the cell culture medium was quantified by measuring the absorbance at 490 nm using Synergy II Biotek (BioTek Instruments, Winooski, VT, USA) microplate reader. Cytotoxicities of the examined compounds were calculated as follows: [(absorbance of the tested sample − absorbance of control I)/(absorbance of control II − absorbance of control I)] × 100. Results were means of three independent measurements (± SD). Doxorubicin (Ebewe Pharma GmbH., Unterach, Austria) was used as a reference cytostatic drug. The IC50 values were determined by plotting the percentage viability of the cells versus concentration and the adequate calculations made using AAT Bioquest website program (https://www.aatbio.com/tools/ic50-calculator, accessed on 29 October 2021).

For experiment [2], the system named is PC3 human prostate adenocarcinoma cells. In words: Cytotoxicity, LDH assay, PC3 cells. The conditions noted are these: Homo sapiens, PC-3, 24 h, 24 h treatment, 5–100 μg/mL. The procedure: as §1, §2, §3
Experiment [3] relates to DU145 human prostate carcinoma cells. In words: Cytotoxicity, LDH assay, DU145 cells. The following applies: Homo sapiens, DU-145, 24 h, 24 h treatment, 5–100 μg/mL. As for the experimental part: as §1, §2, §3
Experiment [4] concerns HT29 human colon adenocarcinoma cells. In words: Cytotoxicity, LDH assay, HT29 cells. The following applies: Homo sapiens, HT-29; 24 h treatment, 5–100 μg/mL. The procedure: as §1, §2, §3
Experiment [5] has as its system PNT-2 human normal prostate epithelium cells. In words: Cytotoxicity, LDH assay, PNT-2 cells. The conditions noted are these: Homo sapiens, PNT2; 24 h treatment, 5–100 μg/mL. As for the experimental part:
as §1, §2, §3

Experiment [6] relates to Caco-2 human colon adenocarcinoma cells. In words: Cytotoxicity, LDH assay, Caco-2 cells. The conditions noted are these: Homo sapiens, Caco-2, 24 h, 24 h treatment, 5–100 μg/mL. As for the experimental part: as §1, §2, §3

A word on the IC50: it is the point on the concentration scale where inhibition reaches its midpoint.

As for `COc1cccc2c1C(=O)c1c(O)c3c(c(O)c1C2=O)C[C@@](O)(C(=O)CO)C[C@@H]3O[C@H]1C[C@H](N)[C@H](O)[C@H](C)O1` [Doxorubicin, reference compound], the IC50 in experiment [1] was 0.59 µg/mL; in experiment [2], more than 50 µg/mL; in experiment [3], 3.18 µg/mL; in experiment [4], 1.53 µg/mL; in experiment [5], 1.38 µg/mL; in experiment [6] it was 3.44 µg/mL.
